The source of these data is ChEMBL document CHEMBL2021782, “Drug-to-genome-to-drug, step 2: reversing selectivity in a series of antiplasmodial compounds” (J Med Chem, 2012).

The nature of series [1]: Selectivity ratio of CC50 for human MRC5 SV2 cells to IC50 for chloroquine-sensitive Plasmodium falciparum GHA strain. It counts as ADME, cell-based. To be noted: read-out: Ratio CC50/IC50.
Another series is filed under the species Bos taurus. As to the kind of experiment: Inhibition of bovine PDE6 using [3H]5GMP at 10 uM after 60 mins by scintillation counting.
Series [2] addresses cGMP-specific 3',5'-cyclic phosphodiesterase (Homo sapiens) (UniProt O76074). To be noted: 10 uM.
Description: Inhibition of human PDE5 using [3H]5GMP at 10 uM after 60 mins by scintillation counting
Series [3] in a line: Selectivity index, ratio of IC50 for chloroquine-sensitive Plasmodium falciparum GHA to IC50 for bovine PDE5.
Series [4] has as its target Dual 3',5'-cyclic-AMP and -GMP phosphodiesterase 11A (Homo sapiens) (UniProt Q9HCR9). The series is described as follows: Inhibition of human recombinant PDE11A4 expressed in Sf9 cells at 10 uM after 30 mins by HTRF assay.
Series [5] addresses High affinity 3',5'-cyclic-AMP phosphodiesterase 7A (Homo sapiens) (UniProt Q13946). The series is described as follows: Inhibition of human recombinant PDE7A expressed in Sf9 cells at 10 uM after 30 mins by HTRF assay.
In series [6] the target is High affinity cAMP-specific and IBMX-insensitive 3',5'-cyclic phosphodiesterase 8A (Homo sapiens) (UniProt O60658). As to the kind of experiment: Inhibition of human recombinant PDE8A1 expressed in Sf9 cells at 10 uM after 30 mins by HTRF assay.
Sequence of High affinity cAMP-specific and IBMX-insensitive 3',5'-cyclic phosphodiesterase 8A (Homo sapiens) (O60658 whole entry): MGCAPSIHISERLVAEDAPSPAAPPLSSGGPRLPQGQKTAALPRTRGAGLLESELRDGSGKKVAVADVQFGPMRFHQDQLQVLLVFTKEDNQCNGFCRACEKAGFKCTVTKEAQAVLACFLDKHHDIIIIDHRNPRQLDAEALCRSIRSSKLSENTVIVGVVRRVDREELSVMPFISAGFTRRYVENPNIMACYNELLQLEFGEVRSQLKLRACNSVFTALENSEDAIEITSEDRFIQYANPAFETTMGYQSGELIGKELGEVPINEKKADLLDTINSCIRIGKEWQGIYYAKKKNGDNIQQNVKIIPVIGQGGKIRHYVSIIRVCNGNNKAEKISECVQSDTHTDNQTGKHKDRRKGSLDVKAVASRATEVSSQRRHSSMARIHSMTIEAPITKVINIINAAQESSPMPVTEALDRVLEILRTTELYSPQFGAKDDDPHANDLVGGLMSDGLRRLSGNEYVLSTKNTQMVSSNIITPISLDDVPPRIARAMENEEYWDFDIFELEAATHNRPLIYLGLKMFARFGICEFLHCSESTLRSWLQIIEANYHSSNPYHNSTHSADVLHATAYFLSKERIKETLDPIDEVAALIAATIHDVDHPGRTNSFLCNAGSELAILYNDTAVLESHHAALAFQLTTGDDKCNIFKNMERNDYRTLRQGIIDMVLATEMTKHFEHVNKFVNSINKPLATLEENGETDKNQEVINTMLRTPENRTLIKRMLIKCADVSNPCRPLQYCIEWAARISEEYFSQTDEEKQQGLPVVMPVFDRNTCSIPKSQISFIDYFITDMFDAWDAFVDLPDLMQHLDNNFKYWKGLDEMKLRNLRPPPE
The nature of series [7]: Cytotoxicity against human MRC5 SV2 cells after 72 hrs using resazurin by fluorimetry. The series is classed as cell-based.
In series [8] the target is cGMP-specific 3',5'-cyclic phosphodiesterase (Bos taurus, UniProt Q28156). The series is described as follows: Inhibition of bovine PDE5 after 24 hrs by time-resolved fluorescence resonance energy transfer assay.
Series [9] deals with cAMP and cAMP-inhibited cGMP 3',5'-cyclic phosphodiesterase 10A (Homo sapiens) (UniProt Q9Y233). The series is described as follows: Inhibition of human recombinant PDE10A1 expressed in Sf9 cells at 10 uM after 30 mins by HTRF assay.
Sequence of cAMP and cAMP-inhibited cGMP 3',5'-cyclic phosphodiesterase 10A (Homo sapiens) (Q9Y233 whole entry): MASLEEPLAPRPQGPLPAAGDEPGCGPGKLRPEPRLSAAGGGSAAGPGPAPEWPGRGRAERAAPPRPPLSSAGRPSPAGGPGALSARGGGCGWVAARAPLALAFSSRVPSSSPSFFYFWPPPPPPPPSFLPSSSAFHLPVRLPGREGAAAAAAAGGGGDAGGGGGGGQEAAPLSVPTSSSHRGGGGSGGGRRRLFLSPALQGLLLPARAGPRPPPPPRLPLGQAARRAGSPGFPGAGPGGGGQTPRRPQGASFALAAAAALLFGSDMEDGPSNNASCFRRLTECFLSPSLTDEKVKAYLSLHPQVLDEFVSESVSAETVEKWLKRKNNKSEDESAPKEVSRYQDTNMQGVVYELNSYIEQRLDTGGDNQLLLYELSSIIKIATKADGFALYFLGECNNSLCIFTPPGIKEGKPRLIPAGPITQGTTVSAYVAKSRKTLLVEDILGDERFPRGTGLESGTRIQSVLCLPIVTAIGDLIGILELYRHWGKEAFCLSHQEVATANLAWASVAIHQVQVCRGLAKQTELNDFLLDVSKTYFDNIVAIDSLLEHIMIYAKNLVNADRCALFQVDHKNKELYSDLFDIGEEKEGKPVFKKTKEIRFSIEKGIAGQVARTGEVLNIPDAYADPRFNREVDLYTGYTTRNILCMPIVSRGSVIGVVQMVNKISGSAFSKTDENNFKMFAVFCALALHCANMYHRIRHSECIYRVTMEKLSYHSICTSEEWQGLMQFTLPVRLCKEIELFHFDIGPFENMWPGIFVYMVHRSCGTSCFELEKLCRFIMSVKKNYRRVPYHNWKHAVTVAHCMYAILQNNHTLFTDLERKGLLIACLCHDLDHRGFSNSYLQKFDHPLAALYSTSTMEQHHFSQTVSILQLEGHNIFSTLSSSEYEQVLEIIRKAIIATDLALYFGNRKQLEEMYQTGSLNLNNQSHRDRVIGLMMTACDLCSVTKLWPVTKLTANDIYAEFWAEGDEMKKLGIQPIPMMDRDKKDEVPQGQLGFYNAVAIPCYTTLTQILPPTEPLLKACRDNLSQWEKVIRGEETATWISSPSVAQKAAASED
Series [10] addresses Phosphodiesterase 4 (Homo sapiens) (UniProt P27815+Q08499+Q07343+Q08493). The series is described as follows: Inhibition of human recombinant PDE4A1A expressed in Sf9 cells at 10 uM after 30 mins by HTRF assay.
The next series deals with Plasmodium falciparum. The series is described as follows: Antiplasmodial activity against chloroquine-sensitive Plasmodium falciparum GHA infected in human erythrocytes after 72 hrs using malstat staining by spectrophotometry. The series is classed as functional, organism-based.
In series [11] the target is Dual specificity calcium/calmodulin-dependent 3',5'-cyclic nucleotide phosphodiesterase 1B (Homo sapiens) (UniProt Q01064). As to the kind of experiment: Inhibition of human recombinant PDE1B expressed in Sf9 cells at 10 uM after 30 mins by HTRF assay.
Sequence of Dual specificity calcium/calmodulin-dependent 3',5'-cyclic nucleotide phosphodiesterase 1B (Homo sapiens) (Q01064 whole entry): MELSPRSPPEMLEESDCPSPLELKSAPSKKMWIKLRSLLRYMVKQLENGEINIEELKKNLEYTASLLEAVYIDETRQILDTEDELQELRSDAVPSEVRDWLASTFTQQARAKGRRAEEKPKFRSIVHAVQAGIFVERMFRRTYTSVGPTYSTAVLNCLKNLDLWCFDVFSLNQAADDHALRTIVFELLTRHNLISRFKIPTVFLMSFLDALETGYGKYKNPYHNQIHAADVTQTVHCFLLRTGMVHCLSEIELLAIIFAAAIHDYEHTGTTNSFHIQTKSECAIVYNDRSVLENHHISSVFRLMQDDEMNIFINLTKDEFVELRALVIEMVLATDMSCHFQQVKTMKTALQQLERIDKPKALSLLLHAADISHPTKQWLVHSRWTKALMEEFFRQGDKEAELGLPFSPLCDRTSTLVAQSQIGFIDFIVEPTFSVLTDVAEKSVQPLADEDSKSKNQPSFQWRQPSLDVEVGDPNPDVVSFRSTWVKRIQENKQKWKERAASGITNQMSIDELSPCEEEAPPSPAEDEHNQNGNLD
Series [12] concerns the target cGMP-inhibited 3',5'-cyclic phosphodiesterase 3A (Homo sapiens) (UniProt Q14432). As to the kind of experiment: Inhibition of human recombinant PDE3A expressed in Sf9 cells at 10 uM after 30 mins by HTRF assay.
Series [13] has as its target cGMP-dependent 3',5'-cyclic phosphodiesterase (Homo sapiens) (UniProt O00408). As to the kind of experiment: Inhibition of human recombinant PDE2A expressed in Sf9 cells at 10 uM after 30 mins by HTRF assay.

Each structure is given as a SMILES string. pIC50: −log10 of the molar value.

Sequence of High affinity 3',5'-cyclic-AMP phosphodiesterase 7A (Homo sapiens) (Q13946 whole entry): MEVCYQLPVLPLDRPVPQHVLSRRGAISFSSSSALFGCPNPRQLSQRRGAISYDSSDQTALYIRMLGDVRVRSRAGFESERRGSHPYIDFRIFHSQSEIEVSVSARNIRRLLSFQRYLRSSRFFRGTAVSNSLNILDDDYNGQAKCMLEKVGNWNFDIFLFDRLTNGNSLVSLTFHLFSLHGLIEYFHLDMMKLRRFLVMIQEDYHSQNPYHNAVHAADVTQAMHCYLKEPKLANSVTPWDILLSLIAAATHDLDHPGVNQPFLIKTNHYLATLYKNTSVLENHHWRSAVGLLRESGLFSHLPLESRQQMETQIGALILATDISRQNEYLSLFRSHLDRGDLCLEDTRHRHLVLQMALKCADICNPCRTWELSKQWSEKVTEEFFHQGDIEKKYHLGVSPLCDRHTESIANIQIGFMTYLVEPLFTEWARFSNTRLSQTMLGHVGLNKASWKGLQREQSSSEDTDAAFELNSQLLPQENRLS
Sequence of cGMP-inhibited 3',5'-cyclic phosphodiesterase 3A (Homo sapiens) (Q14432 whole entry): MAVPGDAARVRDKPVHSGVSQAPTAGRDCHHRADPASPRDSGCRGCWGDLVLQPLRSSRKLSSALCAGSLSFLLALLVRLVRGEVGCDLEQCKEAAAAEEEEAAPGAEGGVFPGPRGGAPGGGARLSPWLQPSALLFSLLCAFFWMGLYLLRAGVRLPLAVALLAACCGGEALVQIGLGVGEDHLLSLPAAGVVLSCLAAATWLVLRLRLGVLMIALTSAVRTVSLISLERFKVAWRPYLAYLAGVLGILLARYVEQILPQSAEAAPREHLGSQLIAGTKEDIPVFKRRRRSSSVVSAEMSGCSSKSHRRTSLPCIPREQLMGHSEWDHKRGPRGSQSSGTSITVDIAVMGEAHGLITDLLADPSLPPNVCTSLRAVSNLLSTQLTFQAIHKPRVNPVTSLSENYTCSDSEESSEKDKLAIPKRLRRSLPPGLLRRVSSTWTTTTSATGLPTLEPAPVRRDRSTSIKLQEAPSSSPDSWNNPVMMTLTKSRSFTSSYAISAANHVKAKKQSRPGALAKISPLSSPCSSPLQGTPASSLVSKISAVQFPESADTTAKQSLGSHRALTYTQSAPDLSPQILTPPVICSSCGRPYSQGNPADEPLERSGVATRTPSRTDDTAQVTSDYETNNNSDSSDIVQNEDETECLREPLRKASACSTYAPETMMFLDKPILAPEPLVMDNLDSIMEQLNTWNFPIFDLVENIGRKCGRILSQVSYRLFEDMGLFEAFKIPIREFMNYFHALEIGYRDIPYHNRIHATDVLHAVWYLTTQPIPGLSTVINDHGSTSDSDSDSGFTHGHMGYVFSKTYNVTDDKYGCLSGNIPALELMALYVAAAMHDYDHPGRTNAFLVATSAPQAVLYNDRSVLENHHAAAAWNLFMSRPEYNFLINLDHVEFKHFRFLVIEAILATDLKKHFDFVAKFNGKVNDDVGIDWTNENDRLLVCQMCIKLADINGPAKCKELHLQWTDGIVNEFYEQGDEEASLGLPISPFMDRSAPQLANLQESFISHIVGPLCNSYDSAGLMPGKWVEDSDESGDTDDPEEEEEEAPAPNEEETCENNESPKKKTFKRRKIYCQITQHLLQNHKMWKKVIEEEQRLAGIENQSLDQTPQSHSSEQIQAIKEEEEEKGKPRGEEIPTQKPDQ
Sequence of Dual 3',5'-cyclic-AMP and -GMP phosphodiesterase 11A (Homo sapiens) (Q9HCR9 whole entry, looked up): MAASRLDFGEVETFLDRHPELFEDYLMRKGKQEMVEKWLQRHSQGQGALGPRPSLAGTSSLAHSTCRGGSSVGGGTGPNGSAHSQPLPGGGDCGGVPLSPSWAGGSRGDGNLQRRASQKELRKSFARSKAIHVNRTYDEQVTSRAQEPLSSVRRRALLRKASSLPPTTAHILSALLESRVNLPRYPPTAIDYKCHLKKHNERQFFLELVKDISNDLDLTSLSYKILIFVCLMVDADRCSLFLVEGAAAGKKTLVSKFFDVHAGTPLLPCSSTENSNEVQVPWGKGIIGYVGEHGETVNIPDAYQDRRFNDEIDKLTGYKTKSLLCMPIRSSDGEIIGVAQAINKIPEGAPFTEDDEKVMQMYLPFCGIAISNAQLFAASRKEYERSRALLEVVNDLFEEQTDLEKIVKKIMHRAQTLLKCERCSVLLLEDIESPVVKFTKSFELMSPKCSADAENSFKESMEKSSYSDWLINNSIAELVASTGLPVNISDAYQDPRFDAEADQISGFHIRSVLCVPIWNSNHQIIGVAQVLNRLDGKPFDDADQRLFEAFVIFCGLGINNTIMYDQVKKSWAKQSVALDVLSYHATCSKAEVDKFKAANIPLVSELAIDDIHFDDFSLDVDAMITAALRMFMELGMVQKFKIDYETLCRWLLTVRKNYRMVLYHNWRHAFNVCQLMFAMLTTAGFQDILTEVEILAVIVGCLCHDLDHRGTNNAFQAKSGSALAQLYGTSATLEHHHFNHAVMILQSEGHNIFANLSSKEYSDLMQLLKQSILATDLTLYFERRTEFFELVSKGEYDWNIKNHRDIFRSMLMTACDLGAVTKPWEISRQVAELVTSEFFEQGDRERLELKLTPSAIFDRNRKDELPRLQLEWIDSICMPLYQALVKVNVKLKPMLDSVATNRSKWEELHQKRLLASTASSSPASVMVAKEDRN

`COc1ccc([C@@H]2c3[nH]c4ccccc4c3C[C@@H]3C(=O)N([C@@H]4CCN(Cc5ccccc5)C4)CC(=O)N23)cc1OC`: the selectivity ratio in series [1] is 76. For the same molecule, the inhibition in the series listed under Bos taurus worked out at 18%; in series [2] it was 48%; in series [4] it was 30%; in series [5], 0%; in series [6] it was 3%; in series [9], 0%. Besides, the inhibition in series [10] was found to be 1%; in [11], 0%; in series [12], 1%; in series [13], 0%. In addition, the Ratio IC50 in [3] was determined as 12.4. Besides, in series [7], the 50% cytotoxic concentration (CC50) at 72 h came to 32 µM. The pIC50 in [8] is 5.28; in the series on Plasmodium falciparum it was 6.38.
